Data set [1] addresses T1, resting GPIIb/IIIa (Homo sapiens, UniProt P05106+P08514).
T1 construct: Platelet rich plasma (PRP) was prepared by centrifugation of whole blood; endogenous in cells; host or cells: washed platelets from venous blood, kept resting with 1 μM PGE1
In words: Test 2: suppression activity of fibrinogen adhesion of prostaglandin E1 (PGE1)-treated platelet. In kind it is cell-based. To be noted: for pIC50: washed PGE1 (1 μM)-treated platelets, plates coated with human fibrinogen 1 μg/well, 37° C. 30 min, read-out: R Suppression of fibrinogen adhesion IC50. The procedure: Test 2: Measurement of Suppression Activity of Fibrinogen Adhesion of Prostaglandin E1 (PGE 1)-treated Platelet
Venous blood was collected onto sodium citrate. Platelet rich plasma (PRP) was prepared by centrifugation of whole blood. Platelets were washed with modified HEPES-Tyrode's buffer (129 mM NaCl, 2.8 mM KCl, 0.8 mM KH2PO4, 8.9 mM NaHCO3, 0.8 mM MgCl2, 10 mM HEPES, 5.5 mM Glucose, 0.1% BSA,.pH 7.4) containing 1μM PGE1. After washing, platelets were suspended in modified HEPES-Tyrode's buffer containing 1.0 mM CaCl2 and 1 μM PGE1 and the number of platelet was adjusted.
Adhesion assay was carried out as follows. 96-well microtiter plates were coated with 1 μg/well of human fibrinogen. The plates were then blocked with 1% BSA. After washing the plates with the buffer, the washed platelets were added to each well in the presence of the test compound or buffer and incubated at 37° C. for 30 min. The plates were then washed three times with buffer. The number of adhered cells was determined by measuring the acid phosphatase activity of cells using a microplate reader at 410 nm. Percent inhibition of adhesion in the sample treated with the test compound was calculated by comparison with the adhesion in absence of the test compound. The activity of the test compound was represented by a value of IC50, i.e. a dose required for the […] inhibition of the platelet adhesion.

For data set [2], the target named is T2, active GPIIb/IIIa (Homo sapiens, UniProt P05106+P08514).
T2 construct: Platelet rich plasma (PRP) containing 3×10^8 platelets/ml was prepared from human blood; endogenous in cells
T2 sequence (P08514 32-887 limits assumed): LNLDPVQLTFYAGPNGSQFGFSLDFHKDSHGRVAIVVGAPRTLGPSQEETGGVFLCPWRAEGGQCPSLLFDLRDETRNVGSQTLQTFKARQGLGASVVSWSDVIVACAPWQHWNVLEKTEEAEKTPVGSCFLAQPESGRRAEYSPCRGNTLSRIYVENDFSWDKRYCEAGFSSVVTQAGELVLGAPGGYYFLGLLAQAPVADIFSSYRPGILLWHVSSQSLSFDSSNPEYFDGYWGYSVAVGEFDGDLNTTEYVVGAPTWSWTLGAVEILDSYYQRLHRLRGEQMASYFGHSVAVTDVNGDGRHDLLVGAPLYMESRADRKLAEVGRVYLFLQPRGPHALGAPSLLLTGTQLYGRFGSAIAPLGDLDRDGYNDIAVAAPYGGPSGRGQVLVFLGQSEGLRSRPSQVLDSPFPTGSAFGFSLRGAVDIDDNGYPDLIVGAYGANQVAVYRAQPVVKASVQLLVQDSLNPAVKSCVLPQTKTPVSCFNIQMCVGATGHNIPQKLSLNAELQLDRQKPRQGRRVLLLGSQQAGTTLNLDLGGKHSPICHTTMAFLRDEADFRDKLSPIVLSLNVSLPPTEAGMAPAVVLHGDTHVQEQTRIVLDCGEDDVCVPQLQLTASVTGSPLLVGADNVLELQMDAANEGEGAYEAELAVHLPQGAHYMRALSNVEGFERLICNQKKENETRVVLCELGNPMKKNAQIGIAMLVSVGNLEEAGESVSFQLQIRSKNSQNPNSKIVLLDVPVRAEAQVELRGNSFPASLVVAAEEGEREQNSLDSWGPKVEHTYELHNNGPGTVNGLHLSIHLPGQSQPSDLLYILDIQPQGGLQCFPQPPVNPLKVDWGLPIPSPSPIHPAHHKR
T2 sequence (P08514 891-1039 partner limits assumed): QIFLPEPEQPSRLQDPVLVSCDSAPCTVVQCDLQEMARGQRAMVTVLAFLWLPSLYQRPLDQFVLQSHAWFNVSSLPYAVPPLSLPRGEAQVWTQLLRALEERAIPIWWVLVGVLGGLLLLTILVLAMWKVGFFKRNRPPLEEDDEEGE
T2 sequence (P05106 27-788): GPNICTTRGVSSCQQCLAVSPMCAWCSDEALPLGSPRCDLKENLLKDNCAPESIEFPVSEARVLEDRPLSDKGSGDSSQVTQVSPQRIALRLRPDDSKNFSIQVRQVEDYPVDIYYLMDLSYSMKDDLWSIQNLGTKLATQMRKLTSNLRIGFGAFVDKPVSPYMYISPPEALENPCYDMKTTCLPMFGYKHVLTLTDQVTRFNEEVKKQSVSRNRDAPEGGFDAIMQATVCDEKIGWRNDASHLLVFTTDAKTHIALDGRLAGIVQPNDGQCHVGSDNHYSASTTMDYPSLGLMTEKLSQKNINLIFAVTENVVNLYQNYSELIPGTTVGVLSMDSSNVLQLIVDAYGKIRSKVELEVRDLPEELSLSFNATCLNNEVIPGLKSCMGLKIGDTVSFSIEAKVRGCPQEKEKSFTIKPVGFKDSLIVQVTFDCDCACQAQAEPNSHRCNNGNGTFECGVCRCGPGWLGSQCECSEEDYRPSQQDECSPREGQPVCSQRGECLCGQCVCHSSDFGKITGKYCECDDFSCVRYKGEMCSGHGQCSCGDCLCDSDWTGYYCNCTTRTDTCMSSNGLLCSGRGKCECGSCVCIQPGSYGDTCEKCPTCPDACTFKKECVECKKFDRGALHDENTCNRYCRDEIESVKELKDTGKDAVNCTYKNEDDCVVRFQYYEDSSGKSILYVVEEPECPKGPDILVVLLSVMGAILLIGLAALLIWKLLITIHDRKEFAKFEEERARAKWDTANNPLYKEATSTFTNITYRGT
Briefly: Test 1: inhibitory activity of adenosine diphosphate (ADP)-induced platelet aggregation in platelet rich plasma. Conditions: for R/A ratio: IC50 (R) of Test 2 / IC50 (A) of Test 1, selective binding ability toward the active GPIIb/IIIa; for pIC50: human PRP 3×10^8 platelets/ml, 37° C., read-out: A Inhibition of platelet aggregation IC50. In kind it is cell-based. How it is done:
Test 1: Measurement of Inhibitory Activity of Adenosine Diphosphate (ADP)-induced Platelet Aggregation
Platelet rich plasma (PRP) containing 3×10^8 platelets/ml was prepared from human blood. To 225 μl of PRP, 25 μl of a solution of the test compound was added and stirred at 37° C. for 2 min. To the solution, 5 μl of ADP (final concentration: 2.5 μM) was added as an aggregation inducing agent. Aggregation was measured with aggregometer (NBS HEMA-TRACER 801). The procedure was as follows. Light transmittance of PRP was calibrated to 100%. PRP was incubated in the aggregometer at 37° C. for 2 min. ADP was added […], and the change in light transmittance was monitored by PL500 recorder (Yokogawa, Japan). Percent inhibition of aggregation by the test compound was calculated by comparison with the aggregation in the absence of the test compound. The activity of an […] (test compound) is represented as a value of IC50, i.e., a dose required for the […] inhibition of the platelet aggregation.

The test system of data set [3] is monkey thrombus model. Briefly: Accumulation of radioactivity at thrombus, blood and muscle in monkey thrombus model (PET, gamma counter). It is filed as in vivo, monkey (Macaca fasciculans). Conditions: 90 min after the administration. An excerpt: Kinetics of the labeled compounds in the body of monkey (Macaca fasciculans) was studied by using the contrast mediums labeled with [^11C] and [^18F] prepared in Production Examples 21 and 22, respectively.
According to the canine saphenous vein (which is formed with a confluence of dorsal digital veins of hallux and arcuate veins of foot, and ascends in front of a medial malleolus and behind of a medial condyle of femur, crosses a saphenous opening of patellar retinaculum and pour into a femoral vein over a femoral triangle) thrombosis model (Knight L. C. et al., Thromb Haemost., 1998, 80, p.845-851 and Lister-James L. et al., J. Nucl Med. 1996, 37, p.775-781), a platinum embolization coil (Boston Scientific Japan) was inserted and placed in the right femoral vein of the monkey while anesthetized and wound was sutured.
Three hours after the insertion of the coil, the contrast mediums prepared in Production Examples 21 and 22, respectively, were administered intravenously (740 MBq/2 ml-saline). Imaging was performed for 90 min with a high-resolution positron emission tomography (PET) scanner (SHR-7700, Hamamatsu Photonics K.K., Japan). After PET measurement, the coil was removed, and the right femoral vein was collected to obtain a thrombus sample. Thigh muscle was collected, and saphenous artery was punctured to collect an arterial blood sample. The thrombus, thigh muscle and arterial blood samples were weighed and their radioactivity was measured with gamma counter (1480 WIZARD, Wallac Oy, Finland).
Data was calculated as percent of injected dose ([…]).

Where [4] appears, read: listed as Production Example 21.

pIC50: −log10 of the molar value. Structures can show the parent of a compound that is named as a salt.

T1 sequence (P08514 32-887 limits assumed): as the sequence (P08514 32-887 limits assumed) above
T1 sequence (P08514 891-1039 partner limits assumed): as the sequence (P08514 891-1039 partner limits assumed) above
T1 sequence (P05106 27-788): as the sequence (P05106 27-788) above

Regarding `CC(C)[C@H](NC(=O)[C@H](CC(=O)O)NC(=O)CCCOc1ccc(C(=N)N)cc1)C(=O)O` [Reference Ex. 4, FK633, reference compound], the pIC50 in data set [1] is 5.88; in data set [2] (ADP final concentration 2.5 μM), 6.99. For the same compound, the R/A ratio in data set [2] stood at 13.

On to `CC(C)CCC(=O)Nc1cccc(C(=O)N[C@@H](CNC(=O)[C@H]2CCCN(C(=O)CCC3CCNCC3)C2)C(=O)O)c1` [Ex. 19], for which the pIC50 in data set [1] is 6.82; in data set [2] (ADP final concentration 2.5 μM), 8.04. In data set [2], the R/A ratio is 17.

As for `COc1ccc(CCC(=O)N[C@@H](CNC(=O)[C@@H]2CCCN(C(=O)CCC3CCNCC3)C2)C(=O)O)cc1` [Ex. 11], the pIC50 in data set [1] was 6.32; in data set [2] (ADP final concentration 2.5 μM), 7.06. Also, in data set [2], the R/A ratio is on record as 6.5.

With `CCC(=O)N[C@@H](CNC(=O)[C@@H]1CCCN(C(=O)CCC2CCNCC2)C1)C(=O)O` [Ex. 8], the pIC50 is 5.82 in data set [1] and 7.31 in data set [2] (ADP final concentration 2.5 μM).

For the compound `COc1cc(C(=O)CN(C)C(=O)/C=C/C2CCNCC2)ccc1OCC(=O)O` [Ex. 14], the negative logarithm of the IC50 (pIC50) is 5.39 in data set [1] and 6.54 in data set [2] (ADP final concentration 2.5 μM). Moreover, the R/A ratio in data set [2] is 14.

As to `CC(=O)N[C@@H](CNC(=O)[C@H]1CCCN(C(=O)CCC2CCNCC2)C1)C(=O)O` [Ex. 12], the pIC50 in data set [1] is 5.29; in data set [2] (ADP final concentration 2.5 μM), 6.10. Besides, the R/A ratio in data set [2] amounted to 6.5.

Take `CCCCCCC(=O)N[C@H](CNC(=O)[C@@H]1CCCN(C(=O)CCC2CCNCC2)C1)C(=O)O` [Ex. 16]: the pIC50 was 6.70 in data set [1] and 7.49 in data set [2] (ADP final concentration 2.5 μM). The R/A ratio in data set [2] is listed as 6.1.

As to `N=C(N)c1ccc(C(=O)N[C@@H](Cc2ccc(O)cc2)C(=O)N2CCC(OCC(=O)O)CC2)cc1` [Reference Ex. 3, Lamifiban, reference compound], the values for the pIC50 in data set [1] and in data set [2] (ADP final concentration 2.5 μM) were 7.10 and 7.35, respectively. Also, in data set [2], the R/A ratio is on record as 1.8.

For the compound `CC(=O)OCC(=O)N[C@H](CNC(=O)[C@@H]1CCCN(C(=O)CCC2CCNCC2)C1)C(=O)O` [Ex. 9], the figures for the pIC50 in data set [1] and in data set [2] (ADP final concentration 2.5 μM) were 6.14 and 7.26, respectively. The R/A ratio in data set [2] is 13.

In the case of `CC(NCOc1ccc(C(=N)N)cc1)C(=O)N[C@@H](CC(=O)O)C(=O)N[C@@H](C(=O)N1CCS(=O)(=O)CC1)C(C)C` (stereo partly drawn) [Ex. 3], the negative-log IC50 (pIC50) is 5.87 in data set [1] and 7.14 in data set [2] (ADP final concentration 2.5 μM). For the same compound, in data set [2], the R/A ratio turned out to be 18.

As for `COC(=O)COc1ccc(C(=O)N[C@H](CNC(=O)[C@@H]2CCCN(C(=O)CCC3CCNCC3)C2)C(=O)O)cc1` [Ex. 17], the values for the negative logarithm of the IC50 (pIC50) in data set [1] and in data set [2] (ADP final concentration 2.5 μM) were 6.31 and 7.52, respectively. For the same compound, in data set [2], the R/A ratio worked out at 16.

For `CN(CC(=O)c1ccc(OCC(=O)O)c(OCCF)c1)C(=O)/C=C/C1CCNCC1` [Ex. 15], the pIC50 is 5.21 in data set [1] and 6.49 in data set [2] (ADP final concentration 2.5 μM). The R/A ratio in data set [2] is 19.

As to `[11CH3]N(CC(=O)c1ccc(OCC(=O)O)c(OCC(=O)O)c1)C(=O)/C=C/C1CCNCC1` [Production Ex. 21, 2,2′-[[4-({[^11C]methyl[(2E)-3-(4-piperidinyl)-2-propenoyl]amino}acetyl)-1,2-phenylene]bis(oxy)]diacetic acid trifluoroacetate], in data set [3], the Thrombus/Blood ratio worked out at 24.2 ± 17.9 and the Thrombus/Muscle ratio is 94.8 ± 65.0. Also, in data set [3] (setting [4]), the Thrombus/Blood ratio entry is given as “approximately 24” and the Thrombus/Muscle ratio result is listed as “approximately 95”. Besides, the “Blood accumulation of radioactivity” value in data set [3] (intravenous 740 MBq, arterial blood) worked out at 0.084 ± 0.012 % ID/g/kg. In addition, the “Muscle accumulation of radioactivity” value in data set [3] (intravenous 740 MBq, thigh muscle) was found to be 0.021 ± 0.005 % ID/g/kg. In data set [3] (intravenous 740 MBq, thrombus), the “Thrombus accumulation of radioactivity” value is 1.902 ± 1.132 % ID/g/kg.

On to “Echistatin [compound 1, reference compound]”, for which the “R Suppression of fibrinogen adhesion IC50” value in data set [1] (PGE1-treated platelets, human fibrinogen coated plates, value printed in μg/ml) was determined as 0.14 µg/mL. The R/A ratio in data set [2] was determined as 0.38. For the same compound, in data set [2] (human PRP, ADP final concentration 2.5 μM, value printed in μg/ml), the “A Inhibition of platelet aggregation IC50” value was 0.36 µg/mL.

Take `N=C(N)c1ccc(OCC(=O)Nc2ccc(OCC(=O)O)c(C(=O)O)c2)cc1` [Ex. 4]: the pIC50 was 5.79 in data set [1] and 6.59 in data set [2] (ADP final concentration 2.5 μM). The R/A ratio in data set [2] is given as 6.3.

With `COc1ccc(CCC(=O)N[C@H](CNC(=O)[C@@H]2CCCN(C(=O)CCC3CCNCC3)C2)C(=O)O)cc1` [Ex. 7], the pIC50 is 6.27 in data set [1] and 7.46 in data set [2] (ADP final concentration 2.5 μM). Besides, the R/A ratio in data set [2] came to 15.

`CC(C)CC(=O)Nc1cccc(C(=O)N[C@@H](CNC(=O)[C@H]2CCCN(C(=O)CCC3CCNCC3)C2)C(=O)O)c1` [Ex. 20]: the negative-log IC50 (pIC50) is 6.62 in data set [1] and 7.52 in data set [2] (ADP final concentration 2.5 μM). The R/A ratio in data set [2] is on record as 8.0.

As for `CC(=O)N[C@@H](CNC(=O)[C@@H]1CCCN(C(=O)/C=C/C2CCNCC2)C1)C(=O)O` [Ex. 6], the values for the pIC50 in data set [1] and in data set [2] (ADP final concentration 2.5 μM) were 6.36 and 7.25, respectively. Also, the R/A ratio in data set [2] turned out to be 7.8.

For `CN(CC(=O)c1ccc(OCC(=O)O)c(OCC(=O)O)c1)C(=O)/C=C/C1CCNCC1` [Ex. 1, 2,2′-{[4-([methyl[(2E)-3-(4-piperidinyl)-2-propenoyl]amino}acetyl)-1,2-phenylene]bis(oxy)]diacetic acid hydrochloride], the pIC50 was 5.10 in data set [1] and 6.87 in data set [2] (ADP final concentration 2.5 μM). In addition, in data set [2], the R/A ratio was 59.

Consider `CC(C)CCCOc1ccc(C(=O)N[C@@H](CNC(=O)[C@H]2CCCN(C(=O)CCC3CCNCC3)C2)C(=O)O)cc1` [Ex. 18], for which the pIC50 in data set [1] is 7.32; in data set [2] (ADP final concentration 2.5 μM), 8.21. Moreover, the R/A ratio in data set [2] is recorded as 7.9.

For the compound `N[C@@H](CNC(=O)[C@@H]1CCCN(C(=O)CCC2CCNCC2)C1)C(=O)O` [Ex. 10], the pIC50 in data set [1] was 5.60; in data set [2] (ADP final concentration 2.5 μM), 6.57. For the same compound, the R/A ratio in data set [2] was determined as 9.2.
